Experimental data reported in patent US20160158253A1, “TREATMENT OF PANCREATIC CANCER WITH A COMBINATION OF A HYPOXIA-ACTIVATED PRODRUG AND A TAXANE” (THRESHOLD PHARMACEUTICALS, INC., priority 2013, published 2016).
Marks after values point to notes of the source that are not given here.

How the values were obtained:
[1] = Clinical injection site and administration reactions of TH-302; assay type: in vivo, human
Source text: Care in the administration of TH 302 will reduce the chance of perivenous infiltration. If any signs or symptoms of extravasation occur, the administration of TH 302 should be immediately terminated and restarted in another vein. TH 302 should always be administered via a freely flowing i.v. line, preferably, where feasible, through a central venous catheter. Administration through small veins, particularly on the hands and feet is discouraged. Because of the progressive nature of extravasation reactions, close observation and plastic surgery consultation is recommended.
TH 302 administration reactions have been observed. […] It is recommended that a steroid such as dexamethasone (or equivalent) be included in the antiemetic regimen prior to administration. Symptoms and signs of hypersensitivity include fever, myalgia, headache, rash, pruritus, urticaria, angioedema, chest discomfort, dyspnea, coughing, cyanosis, and hypotension. If the nature and the severity of the reaction require termination of treatment, it should be determined if the reaction may or may not be an immunoglobulin E mediated process. […] If the event is clearly anaphylaxis, then epinephrine ( 1/1000, 0.3 to 0.5 mL given subcutaneously or equivalent) should be considered as well as standard treatment approaches. […] Reactions to the administration of TH 302 should be assessed and treated in a similar manner. […]

[2] = tested on: cell lines with mutations in BRCA1 or BRCA2; assay: Sensitivity of BRCA1 or BRCA2 mutated cell lines to TH-302; assay type: cell-based
Source text: A human clinical trial can include analysis of any of a series of biomarkers. […] The prevalence of BRCA1 and BRCA2 mutations in pancreatic cancer patients is between 5% and 19%, Thus, a trial can include collection of serum, plasma, and tissue samples for analysis of any markers useful for identifying suitable patient populations and/or liar monitoring the course of therapy.

[3] = Hematological testing (Hemavet 950 blood analyzer); assay type: in vivo, PANC-1 tumor bearing nude mice and CD-1 mice; settings: 24 hrs after last treatment; T and G+nP vs V, triplet vs G+nP
Description: To determine the effect of combination therapy on hematopoiesis, the same treatment was employed in PANC-1 tumor bearing nude mice as well as immunocompetent CD-1 mice. Twenty-four hrs. after the last treatment, the animals were euthanized under CO2, blood was collected via heart puncture, and hematological analysis was performed using a Hemavet 950™ blood analyzer. As shown in FIG. 2 (mean±SEM), G+nP combination therapy or T monotherapy reduced neutrophils, lymphocytes, and monocytes, and complete white blood cell count (WBC), compared with V(*p<0.05 compared with V).

[4] = von Frey neuropathy assay (mechanical hyperalgesia); assay type: in vivo; settings: male CD-1 mice; compared to V, from 9 days after initiation of treatment
Description: To determine the effect of combination therapy on the nervous system, male CD-1 mice were randomly divided into 4 groups with 10 mice each. Mechanical hyperalgesia tests were performed prior to the initial treatment and during the study by a trained observer who was unaware of the animal group identities. […] This hyperalgesia persisted to 37 days with peaks at day 16 and day 23 (p<0.001, two-way ANOVA), and gradually returned to baseline at day 43. […] There was no difference between G+nP+T combination therapy treated and G+nP combination therapy treated animals.

[5] = tested on: Hs766t human PDAC xenograft; assay: Antitumor activity in Hs766t PDAC xenograft model; assay type: in vivo, nude mice; settings: for MT (Median Time to reaching the size of 1000 mm^3): Kaplan-Meier; for TGI (Tumor Growth Inhibition): T 50 mg/kg i.p., nP 30 mg/kg i.v., G 60 mg/kg i.p.
Description: (§1) Dosing for the animal studies described below were selected as follows. In some current human clinical trials, TH-302 is given on once-a-week schedules (QW) of three weeks on, one week off (at a dose of 240 or 340 mg/m^2). […] In xenograft models, gemcitabine is administered at 60 or 80 mg/kg in four three-day cycles (Q3D×4) (Teicher et al., Cancer Res. 6:1016, 2000; Marriman et at., invest New Drugs. 14:243, 1996). […] The therapy was administered every three days for five cycles (Q3D×5).
(§2) The animal studies were conducted using, xenograft models for pancreatic ductal adenocarcinoma (PDAC). Tumors were generated in the flanks of nude mice by subcutaneous injection of established human PDAC cell lines. Four PDAC xenograft models were established by subcutaneous implantation of either Hs766t, MIA PaCa-2, PANC-1 or BxPC-3 cells into the flank of nude mice. Mice were implanted subcutaneously in the right flank with 5×10^6 cells in 30% Matrilgel™ at a dose volume of 200 μL. Mice bearing similar tumor size were randomly assigned into different groups when tumor size reached 150 mm^3. […] Antitumor activity of the G+nP+T triplet combination therapy was assessed, and compared with the G+nP doublet combination therapy.
(§3) Tumor growth delay 1000 mm^3 (TGD1000) was determined as the difference in time required for the mean tumor size to reach 1000 mm^3 between treated group and vehicle control group. TGD1000 of T monotherapy and G+nP doublet combination therapy groups was 47 and 35 days, respectively, while TGD1000 of G+nP+T triplet combination therapy group was 53 days. […] (see Table 1, below).
(§4) In three of the four models, the triplet combination therapy increased the complete response rate (CR) relative to the G+nP combination therapy or the T monotherapy. CR was defined as disappearance of tumor or tumor size is <100 mm^3 at a study point. Of note, the CR rate of the G+nP+T combination therapy in the PANC-1 model reached 100%, compared to 0% and 60% in the T monotherapy and G+nP combination therapy groups, respectively. In the MIA PaCa-2 model, CR rate in the triplet group was 90%, compared to 0 and 10% in the T monotherapy and G+nP doublet combination therapy groups, respectively.

[6] = tested on: BxPC-3 human PDAC xenograft; assay: Antitumor activity in BxPC-3 PDAC xenograft model; assay type: in vivo, nude mice
Description: as §1, §2, §3, §4

[7] = tested on: pancreatic ductal adenocarcinoma (PDAC); settings: TH-302 added to gemcitabine (GEM) versus GEM only; cited from earlier work
[8] = tested on: MIA PaCa-2 human PDAC xenograft; assay: Antitumor activity in MIA PaCa-2 PDAC xenograft model; assay type: in vivo, nude mice
Description: as §1, §2, §3, §4

[9] = Treatment-induced body weight loss in PDAC tumor bearing and CD-1 non-tumor bearing mice; assay type: in vivo
Description: Another series of studies were conducted to investigate the treatment-induced body weight (BW) loss in both PDAC tumor bearing animals and CD-1 immunocompetent mice. Body weight was measured daily or twice a week.

PANC-1 xenograft tumors = assay: Pharmacodynamic biomarkers by histology, immunohistochemistry or in situ assay in PANC-1 tumors; assay type: in vivo, nude mice
Description: We used a panel of biomakers to characterize Hs766t, MIA PaCa-2, PANC-1 and BxPC3 xenograft tumors. […] We chose a moderate hypoxic level tumor model, PANC-1, to investigate the pharmacodynamic changes caused by the different treatments, PANC-1 tumor-bearing animals were treated with vehicle, TH-302, G+nP, and G+nP+T when tumor size was approximately 500 mm^3. One day after the last treatment, tumors were harvested, fixed, paraffin-embedded, and sectioned for staining with a panel of histology and immunohistochemistry markers.
Similar to as observed for apoptosis, γH2AX-positive cells were increased in all three drug treated groups compared with V. 31±1.3 positive cells/field in the G+nP+T triplet group, compared with 19 in T alone or G+nP and less than 4 in V (p<0.05). Cells with DNA damage were evenly distributed in both the hypoxic and oxic compartments in non-necrotic regions. Ki67 is a marker of cell proliferation, labeling all active phases of the cell cycle including S, G2, and mitosis.
To determine the effect of combination therapy on tumor microenvironment, tumor stroma and hypoxia were investigated. Tumor stroma is composed of extracellular matrix protein and cellular elements. Thus, collagen I and III, as main parts of extracellular matrix were evaluated by Picrosirius red staining. Activated fibroblasts in the stroma were analyzed by α-SMA. […] There was no co-localization between exogenous pimonidazole- and endogenous CAIX-positive cells, CA-IX was found in the necrotic cells as well.

[10] = tested on: PANC-1 human PDAC xenograft; assay: Antitumor activity in PANC-1 PDAC xenograft model; assay type: in vivo, nude mice
Description: as §1, §2, §3, §4

pancreatic cancer = settings: Phase 3 trial, pancreatic cancer patients; cited from earlier work
[11] = MIA PaCa-2, TV 1000 mm^3 as endpoint
[12] = PANC-1, TV 1000 mm^3 as endpoint

With Cn1c(COP(=O)(NCCBr)NCCBr)cnc1[N+](=O)[O-] [TH-302, (2-bromoethyl)({[(2-bromoethyl)amino][(2-nitro-3-methylimidazol-4-yl)methoxy]phosphoryl})amine] the “injection site reactions reported” value ([1]; i.v. administration) was “Supravenous erythema and hyperpigmentation”, the administration reactions observed ([1]; responded to steroid and antihistamine treatment) was “lip swelling and urticaria” and the “sensitivity to TH-302” value [2] was “Enhanced sensitivity”. For the same compound, the “neutrophils, lymphocytes, monocytes and complete white blood cell count (WBC)” value [3] was “reduced”, the hind-paw mechanical hyperalgesia [4] was “no mechanical hyperalgesia” and the “MT (Median Time to reaching the size of 1000 mm^3)” value (shortened to “MT”) ([5]; TV 1000 mm^3 as endpoint) was 59.5*^,a day. The “MT” value ([5]; TV 1000 mm^3 as endpoint, listed as T) was 59.5 days, the “TGD1000 (vs. vehicle)” value ([5]; Q3D×5, delay of mean tumor size to 1000 mm^3) was 47 days and the “TGI (Tumor Growth Inhibition)” value ([5]; Q3D×5) was 82.1%*. The “TGI (Tumor Growth Inhibition)” value ([5]; Q3D×5, listed as T) was 82.1%, the “ILS (Increased Life Span)” value ([5]; TV 1000 mm^3 as endpoint) was 297% and the “CR (Complete Response) of 10” value ([5]; tumor gone or <100 mm^3) was 0 of 10. The “CR (Complete Response) of 10” value [6] was 0 of 10, the “TGD1000 (vs. vehicle)” value ([6]; Q3D×5) was 11 days and the “TGI (Tumor Growth Inhibition)” value ([6]; T 50 mg/kg i.p., nP 30 mg/kg i.v., G 60 mg/kg i.p., Q3D×5) was 43%. The “ILS (Increased Life Span)” value ([6]; TV 1000 mm^3 as endpoint) was 52%, the “MT” value ([6]; TV 1000 mm^3 as endpoint) was 24 days and the progression-free survival [7] was “significant increase”. For the same compound, the “CR (Complete Response) of 10” value ([8]; MIA PaCa-2) was 0 of 10, the “TGD1000 (vs. vehicle)” value ([8]; MIA PaCa-2, Q3D×5) was 6 days and the “TGI (Tumor Growth Inhibition)” value ([8]; MIA PaCa-2, T 50 mg/kg i.p., nP 30 mg/kg i.v., G 60 mg/kg i.p., Q3D×5) was 27%. For the same compound, the “ILS (Increased Life Span)” value [8, 11] was 26%, the “MT” value [8, 11] was 34 days and the CR rate ([8]; MIA PaCa-2 model) was 0%. The “maximal body weight loss” value ([9]; BxPC3, Nude ♀ (n = 10)) was 0%, the “maximal body weight loss” value ([9]; Hs766t, Nude ♀ (n = 10)) was 0% and the “maximal body weight loss” value ([9]; MIA PaCa-2, Nude ♀ (n = 10)) was 0%. The “maximal body weight loss” value ([9]; Non-tumor CD-1 ♀ (n = 6)) was 0%, the “maximal body weight loss” value ([9]; Non-tumor CD-1 ♂ (n = 10)) was 0% and the “maximal body weight loss” value ([9]; PANC-1 #1, Nude ♀ (n = 10)) was 0%. For the same compound, the “maximal body weight loss” value ([9]; PANC-1 #2, Nude ♀ (n = 5)) was 0%, the “maximal body weight loss” value ([9]; PANC-1 #3, Nude ♀ (n = 10)) was 0% and the “maximal BW loss (percentage of mean maximal BW loss compared with pretreatment)” value ([9]; across the 8 studies, G+nP range in 7 of 8 studies) was 0%. The “γH2AX-positive cells (DNA damage)” value (PANC-1 xenograft tumors; V less than 4) was 19 positive cells/field, the “extracellular collagen (Picrosirius red staining)” value (PANC-1 xenograft tumors; morphometric analysis) was “no effect” and the “α-SMA expression (activated fibroblasts in stroma)” value (PANC-1 xenograft tumors; morphometric analysis) was “no effect”. The “number of apoptotic cells (TUNEL assay)” value (PANC-1 xenograft tumors; non-necrotic regions, V 0.8±0.1) was 3±0.2 per field, the “tumor necrotic fraction (Masson's Trichrome histology staining)” value (PANC-1 xenograft tumors; one day after last treatment, V 9%) was 35% and the “hypoxic fraction (HF)” value (PANC-1 xenograft tumors; pimonidazole, V 12.4+2%) was 10.6±1.1%. For the same compound, the “CR (Complete Response) of 10” value ([10]; PANC-1) was 0 of 10, the “TGD1000 (vs. vehicle)” value ([10]; PANC-1, Q3D×5) was 7 days and the “TGI (Tumor Growth Inhibition)” value ([10]; PANC-1, T 50 mg/kg i.p., nP 30 mg/kg i.v., G 60 mg/kg i.p., Q3D×5) was 44.5%. The “ILS (Increased Life Span)” value [10, 12] was 48%, the “MT” value [10, 12] was 31 days and the CR rate ([10]; PANC-1 model) was 0%.
In the case of Nc1ccn([C@@H]2O[C@H](CO)[C@@H](O)C2(F)F)c(=O)n1 [gemcitabine], the median overall survival (pancreatic cancer) is listed as 6.6 months.
